This is an account of results in patent US20130310256A1, “HERBICIDAL COMPOSITIONS COMPRISING 4-AMINO-3-CHLORO-5-FLUORO-6-(4-CHLORO-2-FLUORO-3-METHOXYPHENYL) PYRIDINE-2-CARBOXYLIC ACID OR A DERIVATIVE THEREOF AND VLCFA AND LIPID SYNTHESIS INHIBITING HERBICIDES” (DOW AGROSCIENCES LLC, priority 2008, published 2013).

Several values for one entry are separate records, joined by “and”; a condition that tells them apart may be missing. Equal values may be shown once.

In assay [1] the test system is BRAPP. In words: Example I: postemergence foliar-applied weed control, direct seeded rice weeds, greenhouse. It is filed as in vivo. Conditions: for Visual Weed Control Obs: 20 DAA; for Visual Weed Control (%) - 22 DAA BRAPP Obs: foliar. The essentials:
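Plants grown in loam/sandy loam–calcareous grit soil (80:20) in greenhouse, 14 hr photoperiod, about 29° C. day/26° C. night, treated postemergence at first to fourth true leaf stage. Foliar spray at 187 L/ha with 1.25% (v/v) crop oil concentrate; Compound A dosed on acid equivalent basis, partners on active ingredient basis.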

Assay [2] relates to IPOHE. In words: Example I: postemergence foliar-applied weed control, greenhouse. The following applies: for Visual Weed Control Obs: 20 DAA; for Visual Weed Control (%) - 21 DAA IPOHE Obs: foliar. It is filed as in vivo, Ipomoea hederacea Jacq. (ivyleaf morningglory). The source says:
Seeds or nutlets of the desired test plant species were planted in a soil matrix prepared by mixing a loam or sandy loam soil (e.g., 28.6 percent silt, 18.8 percent clay, and 52.6 percent sand, with a pH of about 5.8 and an organic matter content of about 1.8 percent) and calcareous grit in an 80 to 20 ratio. The soil matrix was contained in plastic pots with a volume of 1 quart and a surface area of 83.6 square centimeters (cm^2). When required to ensure good germination and healthy plants, a fungicide treatment and/or other chemical or physical treatment was applied. The plants were grown for 8-22 days in a greenhouse with an approximate 14 hr photoperiod which was maintained at about 29° C. during the day and 26° C. during the night. Nutrients (Peters Excel® 15-5-15 5-Ca 2-Mg and iron chelate) were applied in the irrigation solution as needed and water was added on a regular basis. Supplemental lighting was provided with overhead metal halide 1000-Watt lamps as necessary. The plants were employed for testing when they reached the first through fourth true leaf stage.
Treatments consisted of the acid or esters of 4-amino-3-chloro-5-fluoro-6-(4-chloro-2-fluoro-3-methoxy-phenyl)pyridine-2-carboxylic acid (Compound A), each formulated as an SC (suspension concentrate), and various herbicidal components alone and in combination. Forms of compound A were applied on an acid equivalent basis.
Other herbicidal components were applied on an active ingredient basis and included very long chain fatty acid (VLCFA) synthesis-inhibiting and fatty acid/lipid synthesis-inhibiting herbicides acetochlor (technical grade material), acetochlor+dichlormid formulated as Topnotch®, pretilachlor (technical grade material), butachlor formulated as Butachlor EC, fentrazamide formulated as Fentrazamide EC, thiobencarb formulated as Bolero® 8EC, cafenstrole formulated as Himeadow® WP or Lapost® Flowable, benfuresate formulated as Full Shot®, dimethenamid-P formulated as Outlook®, indanofan (technical grade material), flufenacet formulated as Define® DF, mefenacet (technical grade material), S-metolachlor formulated as Dual® II Magnum, pethoxamid formulated as Successor® 600, and pyroxasulfone (technical grade material).
Treatment requirements were calculated based upon the rates being tested, the concentration of active ingredient or acid equivalent in the formulation, and a 12 mL application volume at a rate of 187 L/ha.
For treatments comprised of formulated compounds, measured amounts of compounds were placed individually in 25 mL glass vials and diluted in a volume of 1.25% (v/v) Agri-Dex® crop oil concentrated to obtain 12× stock solutions. […] Application solutions were prepared by adding an appropriate amount of each stock solution (e.g., 1 mL) and diluted to the appropriate final concentrations with the addition of 10 mL of an aqueous mixture of 1.25% (v/v) crop oil concentrate so that the final spray solutions contained 1.25+/−0.05% (v/v) crop oil concentrate.
For treatments comprised of technical compounds, weighed amounts can be placed individually in 25 mL glass vials and dissolved in a volume of 97:3 v/v acetone/DMSO to obtain 12× stock solutions. […] Application solutions can be prepared by adding an appropriate amount of each stock solution (e.g., 1 mL) and diluted to the appropriate final concentrations with the addition of 10 mL of an aqueous mixture of 1.5% (v/v) crop oil concentrate so that the final spray solutions contain 1.25% (v/v) crop oil concentrate. When technical materials are used, the concentrated stock solutions can be added to the spray solutions so that the final acetone and DMSO concentrations of the application solutions are […], respectively. […]

As to `CCN(CC)C(=O)n1cnc(S(=O)(=O)c2c(C)cc(C)cc2C)n1` [Cafenstrole, N,N-diethyl-3-[(2,4,6-trimethylphenyl)sulfonyl]-1H-1,2,4-triazole-1-carboxamide], the “Visual Weed Control Obs” value in assay [1] (26.25 gai/ha Himeadow WP) is reported as 0%; in assay [1] (52.5 gai/ha Himeadow WP), 0%; in assay [1] (105 gai/ha Himeadow WP), 0%; in assay [2] (26.25 gai/ha Himeadow WP), 0%; in assay [2] (105 gai/ha Himeadow WP) it was 30%. Moreover, the “Visual Weed Control (%) - 21 DAA IPOHE Obs” value came to 0% in assay [2] (26.25 gai/ha) and 10% in assay [2] (210 gai/ha, 2nd IPOHE sub-table).
Consider `COc1c(Cl)ccc(-c2nc(C(=O)O)c(Cl)c(N)c2F)c1F` [Compound A Acid, 4-amino-3-chloro-6-(4-chloro-2-fluoro-3-methoxyphenyl)-5-fluoropyridine-2-carboxylic acid], for which the “Visual Weed Control Obs” value in assay [1] (4.38 gae/ha) is 50% and 60% and 75%; in assay [1] (8.75 gae/ha), 70% and 80%; in assay [2] (4.38 gae/ha) it was 0%; in assay [2] (8.75 gae/ha), 20%; in assay [2] (17.5 gae/ha), 40%.
In the case of `COc1c(Cl)ccc(-c2nc(C(=O)OCc3ccccc3)c(Cl)c(N)c2F)c1F` [Compound A Benzyl Ester, benzyl ester of 4-amino-3-chloro-5-fluoro-6-(4-chloro-2-fluoro-3-methoxy-phenyl)pyridine-2-carboxylic acid], the “Visual Weed Control (%) - 22 DAA BRAPP Obs” value was 60% and 65% in assay [1] (8 gae/ha); 60% and 80% in assay [1] (16 gae/ha); 90% and 85% in assay [1] (32 gae/ha). For the same molecule, the “Visual Weed Control Obs” value in assay [1] (4.38 gae/ha) is 60%; in assay [1] (8.75 gae/ha), 65%; in assay [2] (4.38 gae/ha), 10%; in assay [2] (8.75 gae/ha), 15%; in assay [2] (17.5 gae/ha), 25%. Besides, the “Visual Weed Control (%) - 21 DAA IPOHE Obs” value in assay [2] (4.38 gae/ha) is recorded as 0%; in assay [2] (8.75 gae/ha), 10%; in assay [2] (17.5 gae/ha), 30%; in assay [2] (17.5 gae/ha, 2nd IPOHE sub-table), 10%.
In the case of `CCCOCCN(C(=O)CCl)c1c(CC)cccc1CC` [Pretilachlor, 2-chloro-N-(2,6-diethylphenyl)-N-(2-propoxyethyl)acetamide], the “Visual Weed Control Obs” value in assay [1] (37.5 gai/ha), in assay [1] (75 gai/ha) and in assay [1] (150 gai/ha) was 0% in each case.
